According to ChEMBL document CHEMBL3286266, “Development of novel benzomorpholine class of diacylglycerol acyltransferase I inhibitors” (ACS Med Chem Lett, 2014):
In brackets after ≈: the same amount, converted by molar mass.

Assays:
Mus musculus [1] = test: Induction of weight loss in diet-induced obese C57BL/6J mouse assessed as decrease in body weight at 10 mg/kg, po qd measured during 11 day chronic study; type: functional; set-up: scale not given: the % may be the effect or the level left
[2] = Total AUC in rat; type: ADME, organism-based; set-up: time AUCmax; conditions: in vivo
[3] = Tmax in rat; type: ADME, organism-based; conditions: in vivo
[4] = Permeability in human Caco2 cells; type: ADME, cell-based; conditions: Caco-2, read-out: permeability
Mus musculus [5] = test: Reduction in triglycerides level in mouse at 3 mg/kg, po after 2 hrs by postprandial triglyceride assay; type: functional
[6] = Solubility in plasma (unknown origin) at pH 7; type: ADME, cell-free
[7] = Cmax in rat; type: ADME, organism-based; conditions: in vivo
[8] = molecular target: T1, Diacylglycerol O-acyltransferase 1 (Mus musculus, UniProt Q9Z2A7); test: Inhibition of mouse DGAT1 expressed in Sf9 insect cells using 1,2-dioleoyl-sn-glycerol and [14C]-palmitoyl-CoA substrate by scintillation counting analysis
T1 sequence (Q9Z2A7 whole entry): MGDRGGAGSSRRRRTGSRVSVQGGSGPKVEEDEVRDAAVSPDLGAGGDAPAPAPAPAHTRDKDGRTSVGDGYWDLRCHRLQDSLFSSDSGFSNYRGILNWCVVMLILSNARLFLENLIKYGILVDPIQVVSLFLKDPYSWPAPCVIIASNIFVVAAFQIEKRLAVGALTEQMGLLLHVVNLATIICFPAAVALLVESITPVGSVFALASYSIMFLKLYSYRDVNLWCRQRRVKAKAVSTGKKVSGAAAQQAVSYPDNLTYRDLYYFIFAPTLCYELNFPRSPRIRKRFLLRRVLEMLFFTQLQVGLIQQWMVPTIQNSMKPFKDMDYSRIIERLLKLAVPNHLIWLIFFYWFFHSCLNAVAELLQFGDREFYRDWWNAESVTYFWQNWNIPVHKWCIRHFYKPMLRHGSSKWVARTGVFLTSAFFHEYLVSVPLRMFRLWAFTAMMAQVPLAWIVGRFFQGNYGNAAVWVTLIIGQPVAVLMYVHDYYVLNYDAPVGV

[9] = molecular target: T2, Diacylglycerol O-acyltransferase 2 (Homo sapiens, UniProt Q96PD7); test: Inhibition of human DGAT2 expressed in Sf9 insect cells using 1,2-dioleoyl-sn-glycerol and [14C]-palmitoyl-CoA substrate by scintillation counting analysis
T2 sequence (Q96PD7 whole entry): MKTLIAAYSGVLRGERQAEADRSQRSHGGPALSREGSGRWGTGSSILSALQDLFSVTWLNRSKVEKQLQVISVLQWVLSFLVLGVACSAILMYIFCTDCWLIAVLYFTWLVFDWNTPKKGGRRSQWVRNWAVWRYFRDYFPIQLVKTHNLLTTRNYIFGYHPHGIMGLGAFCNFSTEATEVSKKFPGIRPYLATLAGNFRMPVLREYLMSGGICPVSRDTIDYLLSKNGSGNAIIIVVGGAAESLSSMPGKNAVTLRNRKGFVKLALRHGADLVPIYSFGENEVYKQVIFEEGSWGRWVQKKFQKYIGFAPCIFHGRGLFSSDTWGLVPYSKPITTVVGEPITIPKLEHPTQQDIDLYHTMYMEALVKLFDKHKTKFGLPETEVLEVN

[10] = molecular target: T3, Sterol O-acyltransferase 2 (Homo sapiens, UniProt O75908); test: Inhibition of human ACAT2 expressed in Sf9 insect cells using [14C]-oleoyl-CoA by scintillation counting analysis
T3 sequence (O75908 whole entry): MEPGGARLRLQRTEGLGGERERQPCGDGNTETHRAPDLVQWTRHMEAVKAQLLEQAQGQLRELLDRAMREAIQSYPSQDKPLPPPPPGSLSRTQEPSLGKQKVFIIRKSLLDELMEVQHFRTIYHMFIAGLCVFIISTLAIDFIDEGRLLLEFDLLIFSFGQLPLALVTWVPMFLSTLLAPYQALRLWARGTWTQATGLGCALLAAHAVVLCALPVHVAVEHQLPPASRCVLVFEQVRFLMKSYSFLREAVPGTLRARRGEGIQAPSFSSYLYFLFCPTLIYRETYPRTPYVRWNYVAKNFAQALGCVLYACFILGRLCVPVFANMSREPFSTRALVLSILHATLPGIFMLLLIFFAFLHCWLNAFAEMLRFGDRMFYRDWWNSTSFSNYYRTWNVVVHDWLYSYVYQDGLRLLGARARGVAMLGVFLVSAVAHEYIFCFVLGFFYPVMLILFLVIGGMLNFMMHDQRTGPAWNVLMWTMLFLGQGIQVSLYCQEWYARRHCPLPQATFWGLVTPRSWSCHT

Cytochrome P450 2C9 = Cytochrome P450 2C9 (Homo sapiens, UniProt P11712); test: Inhibition of CYP2C9 (unknown origin)
[11] = molecular target: T4, Sterol O-acyltransferase 1 (Homo sapiens, UniProt P35610); test: Inhibition of human ACAT1 expressed in Sf9 insect cells using [14C]-oleoyl-CoA by scintillation counting analysis
T4 sequence (P35610 whole entry): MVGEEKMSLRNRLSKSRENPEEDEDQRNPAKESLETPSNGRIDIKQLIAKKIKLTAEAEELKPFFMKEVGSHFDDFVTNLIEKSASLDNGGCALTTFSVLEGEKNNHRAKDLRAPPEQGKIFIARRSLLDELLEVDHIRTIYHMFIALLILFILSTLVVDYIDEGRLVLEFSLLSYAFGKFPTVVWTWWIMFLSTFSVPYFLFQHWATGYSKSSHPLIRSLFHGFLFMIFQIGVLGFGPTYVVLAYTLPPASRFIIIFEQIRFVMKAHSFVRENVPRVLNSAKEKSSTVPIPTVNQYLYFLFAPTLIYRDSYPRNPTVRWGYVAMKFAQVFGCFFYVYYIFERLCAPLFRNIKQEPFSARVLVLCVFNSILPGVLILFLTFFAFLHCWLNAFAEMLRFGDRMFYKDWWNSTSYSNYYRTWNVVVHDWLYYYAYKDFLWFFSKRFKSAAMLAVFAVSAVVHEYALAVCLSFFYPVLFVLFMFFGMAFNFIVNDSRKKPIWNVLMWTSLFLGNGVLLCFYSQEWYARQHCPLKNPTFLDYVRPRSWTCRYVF

[12] = AUC in mouse at 10 mg/kg; type: ADME, organism-based; set-up: dose 10 mg/kg; conditions: plasma

Cytochrome P450 2C9, sequence (P11712 whole entry): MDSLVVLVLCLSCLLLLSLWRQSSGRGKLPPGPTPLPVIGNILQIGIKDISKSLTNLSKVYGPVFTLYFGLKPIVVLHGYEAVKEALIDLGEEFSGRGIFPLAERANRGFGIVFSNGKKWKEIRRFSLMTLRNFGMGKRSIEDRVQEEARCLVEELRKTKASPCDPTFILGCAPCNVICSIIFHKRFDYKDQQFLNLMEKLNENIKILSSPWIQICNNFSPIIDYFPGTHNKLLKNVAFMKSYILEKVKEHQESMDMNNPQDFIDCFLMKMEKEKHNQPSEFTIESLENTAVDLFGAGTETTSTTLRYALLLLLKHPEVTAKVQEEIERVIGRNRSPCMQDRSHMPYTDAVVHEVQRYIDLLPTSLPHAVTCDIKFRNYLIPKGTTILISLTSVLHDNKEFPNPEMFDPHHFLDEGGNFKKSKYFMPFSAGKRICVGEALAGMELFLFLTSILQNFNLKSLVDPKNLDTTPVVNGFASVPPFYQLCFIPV

Compound | Activity (Mus musculus [1]) | AUC [2] | Tmax [3] | Papp [4] | inhibition in vivo at 3 mg/kg (Mus musculus [5]) | solubility [6] | Cmax [7] | IC50 [8] | IC50 [9] | IC50 [10] | IC50 (Cytochrome P450 2C9) | IC50 [11] | AUC [12]
O=C(Nc1ccc(OC(F)(F)F)cc1)Nc1ccc(-c2ccc(C(=O)[C@@H]3CCC[C@H]3C(=O)O)cc2)cc1F | 2% |  |  |  |  |  |  |  |  |  |  |  | 
CCCCCCCNC(=O)N1CCOc2cc(-c3ccc([C@H]4CC[C@H](CC(=O)O)CC4)cc3)ccc21 |  | 0.195 µM·h | 2 h | 3.5 ×10⁻⁶ cm/s | 48% | 5 µM (≈ 2.46 µg/mL) | 65 nM | 0.027 µM |  |  |  |  | 
C[C@@H]1CN(C(=O)Nc2ccccc2)c2ccc(-c3ccc([C@H]4CC[C@H](CC(=O)O)CC4)cc3)cc2O1 |  |  |  |  |  |  |  | 0.018 µM | 10 µM | 2 µM | 14 µM | 10 µM | 34 µM·h
